Patent US20240390408A1, “METHOD OF TREATING HEPATITIS C VIRUS IN PATIENTS” (Altesa BioSciences, Inc., priority 2023, published 2024)
Like-named read-outs stand apart in the source and are kept apart here.

Experiment: Tissue concentrations of Formula I and its metabolites in Göttingen pigs after a single oral or intravenous dose (LC-MS/MS)
Type: in vivo
Conditions: for concentration at 2 h / concentration at 12 h / concentration at 3 h / concentration at 24 h: both sexes, Göttingen, pig (minipig)
Experimental: Tissue samples were collected at 3, 12, and 24 hours post-dose (hpd) for the oral dose and 2 and 12 hpd for the intravenous dose, snap-frozen in liquid nitrogen, and stored at −60 to −90° C. until shipment on dry ice for analysis by LC-MS/MS.
Animals were weighed the day prior to dosing to determine the dosing volume.
The compound of Formula I was dissolved in a PEG 400/DI water (60%/40% v/v) vehicle for oral dosing. For IV dosing the compound of Formula I was dissolved in a PEG 400/Cremophor RH 40/Saline (40%/10%/50% v/v) vehicle and passed through a sterile filter. […] Animals were euthanized by euthanasia solution administration under sedation, if necessary (e.g., acepromazine and or/Telazol®), followed by a Testing Facility SOP approved method to ensure death (e.g., exsanguination). Tissues were collected from two animals per sex per timepoint. Tissue samples, including the brain, heart, kidney, liver, lung, spleen, pancreas, bone marrow, duodenum, jejunum, and colon, were collected in duplicate (approximately 50±20 mg each) and placed into two separate reinforced homogenization tubes per organ (one tissue sample per tube). The exact weight (in milligrams) of each sample was recorded. Tissues samples were flash frozen in liquid nitrogen and stored at −60 to −90° C. until shipment on dry ice for analysis by LC-MS/MS.
Mobile phase A consisted of 50 mM ammonium bicarbonate buffer in HPLC grade water pH 9.8 and mobile phase B consisted of pure acetonitrile. […] Mass spectrometry analysis was performed on a QTrap 7500 Mass Spectrometer (Sciex, Framingham, MA, USA) using negative mode electrospray ionization (ESI) in multiple reaction monitoring (MRM) mode. Data analysis was performed using SCIEX OS Software (Sciex, Framingham, MA, USA).
Tissue samples were collected at 3, 12, and 24 hours post-dose for the oral dose and 2 and 12 hour post-dose for the intravenous dose.

[1] = 2-3 hours after IV 25 mg/kg or PO 125 mg/kg dosing
[2] = brain, single intravenous bolus of Formula I 25 mg/kg, 2 hpd, read-out: Tissue concentration, brain
[3] = brain, single oral dose of Formula I 125 mg/kg, 3 hpd, read-out: Tissue concentration, brain
[4] = heart, single intravenous bolus of Formula I 25 mg/kg, 2 hpd, read-out: Tissue concentration, heart
[5] = heart, single intravenous bolus of Formula I 25 mg/kg, 12 hpd, read-out: Tissue concentration, heart
[6] = heart, single oral dose of Formula I 125 mg/kg, 3 hpd, read-out: Tissue concentration, heart
[7] = heart, single oral dose of Formula I 125 mg/kg, 12 hpd, read-out: Tissue concentration, heart
[8] = kidney, single intravenous bolus of Formula I 25 mg/kg, 2 hpd, read-out: Tissue concentration, kidney
[9] = kidney, single intravenous bolus of Formula I 25 mg/kg, 12 hpd, read-out: Tissue concentration, kidney
[10] = kidney, single oral dose of Formula I 125 mg/kg, 3 hpd, read-out: Tissue concentration, kidney
[11] = kidney, single oral dose of Formula I 125 mg/kg, 12 hpd, read-out: Tissue concentration, kidney
[12] = kidney, single oral dose of Formula I 125 mg/kg, 24 hpd, read-out: Tissue concentration, kidney
[13] = liver, single intravenous bolus of Formula I 25 mg/kg, 2 hpd, read-out: Tissue concentration, liver
[14] = liver, single intravenous bolus of Formula I 25 mg/kg, 12 hpd, read-out: Tissue concentration, liver
[15] = liver, single oral dose of Formula I 125 mg/kg, 3 hpd, read-out: Tissue concentration in Göttingen pig liver (Table 7)
[16] = liver, single oral dose of Formula I 125 mg/kg, 3 hpd, read-out: Tissue concentration, liver
[17] = liver, single oral dose of Formula I 125 mg/kg, 12 hpd, read-out: Tissue concentration in Göttingen pig liver (Table 7)
[18] = liver, single oral dose of Formula I 125 mg/kg, 12 hpd, read-out: Tissue concentration, liver
[19] = liver, single oral dose of Formula I 125 mg/kg, 24 hpd, read-out: Tissue concentration in Göttingen pig liver (Table 7)
[20] = liver, single oral dose of Formula I 125 mg/kg, 24 hpd, read-out: Tissue concentration, liver
[21] = lung, single intravenous bolus of Formula I 25 mg/kg, 2 hpd, read-out: Tissue concentration, lung
[22] = lung, single intravenous bolus of Formula I 25 mg/kg, 12 hpd, read-out: Tissue concentration, lung
[23] = lung, single oral dose of Formula I 125 mg/kg, 3 hpd, read-out: Tissue concentration, lung
[24] = lung, single oral dose of Formula I 125 mg/kg, 12 hpd, read-out: Tissue concentration, lung
[25] = lung, single oral dose of Formula I 125 mg/kg, 24 hpd, read-out: Tissue concentration, lung
[26] = spleen, single intravenous bolus of Formula I 25 mg/kg, 2 hpd, read-out: Tissue concentration, spleen
[27] = spleen, single intravenous bolus of Formula I 25 mg/kg, 12 hpd, read-out: Tissue concentration, spleen
[28] = spleen, single oral dose of Formula I 125 mg/kg, 3 hpd, read-out: Tissue concentration, spleen
[29] = spleen, single oral dose of Formula I 125 mg/kg, 12 hpd, read-out: Tissue concentration, spleen
[30] = spleen, single oral dose of Formula I 125 mg/kg, 24 hpd, read-out: Tissue concentration, spleen

C[C@@]1(O)[C@H](O)[C@@H](CO)O[C@H]1n1ccc(=O)[nH]c1=S [Formula VI]
Brain level, additional fold lower than heart, lung and spleen [1]: approximately 10 fold
Kidney and liver levels relative to heart, lung and spleen (fold higher) [1]: approximately 10 fold
Additional decrease of levels in all organs (24 hpd after oral dose, all organs): 2-3 fold
Decrease of levels in all organs (12 hours post oral dose, all organs): 4-6 fold
concentration at 2 h [2]: 140 ± 56.7 ng/g
concentration at 12 h (brain, single intravenous bolus of Formula I 25 mg/kg, 12 hpd, read-out: Tissue concentration, brain): 6.4 ± 12.8 ng/g
concentration at 3 h [3]: 192 ± 77.9 ng/g
concentration at 12 h (brain, single oral dose of Formula I 125 mg/kg, 12 hpd, read-out: Tissue concentration, brain): 111 ± 38.6 ng/g
concentration at 24 h (brain, single oral dose of Formula I 125 mg/kg, 24 hpd, read-out: Tissue concentration, brain): 37.9 ± 9.15 ng/g
concentration at 2 h [4]: 1990 ± 195 ng/g
concentration at 12 h [5]: 57.3 ± 23.3 ng/g
concentration at 3 h [6]: 3370 ± 645 ng/g
concentration at 12 h [7]: 533 ± 213 ng/g
concentration at 24 h (heart, single oral dose of Formula I 125 mg/kg, 24 hpd, read-out: Tissue concentration, heart): 240 ± 27.7 ng/g
concentration at 2 h [8]: 25400 ± 5560 ng/g
concentration at 12 h [9]: 701 ± 48.7 ng/g
concentration at 3 h [10]: 29400 ± 2170 ng/g
concentration at 12 h [11]: 7420 ± 1440 ng/g
concentration at 24 h [12]: 2740 ± 503 ng/g
concentration at 2 h [13]: 7960 ± 1530 ng/g
concentration at 12 h [14]: 201 ± 126 ng/g
concentration at 3 h [15]: 66.3 ± 23.7 µM
concentration at 3 h [16]: 18200 ± 6500 ng/g
concentration at 12 h [17]: 9.46 ± 5.56 µM
concentration at 12 h [18]: 2600 ± 1530 ng/g
concentration at 24 h [19]: 4080 ± 1840 nM
concentration at 24 h [20]: 1120 ± 505 ng/g
concentration at 2 h [21]: 2330 ± 130 ng/g
concentration at 12 h [22]: 93.9 ± 18.8 ng/g
concentration at 3 h [23]: 3580 ± 1060 ng/g
concentration at 12 h [24]: 536 ± 101 ng/g
concentration at 24 h [25]: 242 ± 85.7 ng/g
concentration at 2 h [26]: 1620 ± 181 ng/g
concentration at 12 h [27]: 49.2 ± 9.7 ng/g
concentration at 3 h [28]: 3010 ± 433 ng/g
concentration at 12 h [29]: 539 ± 195 ng/g
concentration at 24 h [30]: 292 ± 139 ng/g
12 hpd levels after IV dosing, fold lower than corresponding levels after PO dosing (each organ, 12 hpd, IV 25 mg/kg vs PO 125 mg/kg): approximately 10 fold

C[C@H](NP(=O)(O)OC[C@H]1O[C@@H](n2ccc(=O)[nH]c2=S)C(C)(O)C1O)C(=O)O (stereo in doubt) [Formula II]
Exposure in the lung and spleen, fold lower than liver and kidneys (after PO dosing with Formula I): about 10 fold
concentration at 2 h [2]: 4.9 ± 9.8 ng/g
concentration at 3 h [3]: 27 ± 23.4 ng/g
concentration at 2 h [4]: 292 ± 139 ng/g
concentration at 12 h [5]: 7.85 ± 9.5 ng/g
concentration at 3 h [6]: 780 ± 375 ng/g
concentration at 12 h [7]: 3.33 ± 6.65 ng/g
concentration at 2 h [8]: 6920 ± 3290 ng/g
concentration at 12 h [9]: 39.3 ± 32.1 ng/g
concentration at 3 h [10]: 10300 ± 2300 ng/g
concentration at 12 h [11]: 180 ± 172 ng/g
concentration at 24 h [12]: 30 ± 12.8 ng/g
concentration at 2 h [13]: 694 ± 385 ng/g
concentration at 12 h [14]: 17.9 ± 16.4 ng/g
concentration at 3 h [15]: 29.2 ± 12.2 µM
concentration at 3 h [16]: 12400 ± 5150 ng/g
concentration at 12 h [17]: 0.475 ± 0.727 µM
concentration at 12 h [18]: 202 ± 309 ng/g
concentration at 24 h [19]: 107 ± 60.6 nM
concentration at 24 h [20]: 45.6 ± 25.8 ng/g
concentration at 2 h [21]: 786 ± 134 ng/g
concentration at 12 h [22]: 31.8 ± 5.52 ng/g
concentration at 3 h [23]: 1630 ± 667 ng/g
concentration at 12 h [24]: 16.5 ± 12.8 ng/g
concentration at 24 h [25]: 2.25 ± 4.51 ng/g
concentration at 2 h [26]: 530 ± 284 ng/g
concentration at 12 h [27]: 24.8 ± 7.34 ng/g
concentration at 3 h [28]: 1390 ± 301 ng/g
concentration at 12 h [29]: 11.9 ± 9.24 ng/g
concentration at 24 h [30]: 2.27 ± 4.53 ng/g
Tissue concentration, brain (brain, single intravenous bolus of Formula I 25 mg/kg, 2 hpd): 4.90 ± 9.80 ng/g
Tissue concentration, brain (brain, single intravenous bolus of Formula I 25 mg/kg, 12 hpd): not observable and BQL
Tissue concentration, brain (brain, single oral dose of Formula I 125 mg/kg, 3 hpd): 27.0 ± 23.4 ng/g
Tissue concentration, brain (brain, single oral dose of Formula I 125 mg/kg, 12 hpd): BQL
Tissue concentration, brain (brain, single oral dose of Formula I 125 mg/kg, 24 hpd): BQL
Tissue concentration, heart (heart, single intravenous bolus of Formula I 25 mg/kg, 12 hpd): 7.85 ± 9.50 ng/g
Tissue concentration, heart (heart, single oral dose of Formula I 125 mg/kg, 3 hpd): 780 ± 375 ng/g
Tissue concentration, heart (heart, single oral dose of Formula I 125 mg/kg, 24 hpd): BQL
Tissue concentration, kidney (kidney, single intravenous bolus of Formula I 25 mg/kg, 2 hpd): 6920 ± 3290 ng/g
Tissue concentration, kidney (kidney, single intravenous bolus of Formula I 25 mg/kg, 12 hpd): 39.3 ± 32.1 ng/g
Tissue concentration, kidney (kidney, single oral dose of Formula I 125 mg/kg, 3 hpd): 10300 ± 2300 ng/g
Tissue concentration, liver (liver, single oral dose of Formula I 125 mg/kg, 3 hpd): 12400 ± 5150 ng/g
Tissue concentration, liver (liver, single oral dose of Formula I 125 mg/kg, 24 hpd): 45.6 ± 25.8 ng/g
Tissue concentration, lung (lung, single oral dose of Formula I 125 mg/kg, 3 hpd): 1630 ± 667 ng/g
Tissue concentration, spleen (spleen, single oral dose of Formula I 125 mg/kg, 3 hpd): 1390 ± 301 ng/g
